From ChEMBL document CHEMBL2057202, “Investigation of substituted 6-aminohexanoates as skin penetration enhancers” (Bioorg Med Chem, 2012)
pIC50: −log10 of the molar value.

Legend:
[1] = Potentiation of theophylline transdermal permeation in pig ear skin assessed as enhancement ratio at 20 mg after 24 hrs by Franz diffusion cell method; type: ADME, Sus scrofa
[2] = Lipophilicity, log K of the compound by RP-HPLC analysis; type: physicochemical
SK-N-MC = test: Antiproliferative activity against human SK-N-MC cells after 72 hrs by MTT assay; type: cell-based

SMILES	Ratio [1]	log K [2]	pIC50 (SK-N-MC)
CCCCCCCOC(=O)CCCCCN1C(=O)CCC1=O	2.64	0.15	< 5.20
CCCCCCCCOC(=O)CCCCCN1C(=O)CCC1=O	2.55	0.3239	< 5.20
CCCCCCCCCOC(=O)CCCCCN1C(=O)CCC1=O	3.14	0.4901	< 5.20
CCCCCCCCCCOC(=O)CCCCCN1C(=O)CCC1=O	3.54	0.6548	< 5.20
CCCCCCCCOC(=O)C(CCCCN1C(=O)CCC1=O)N1CCCCCC1=O (stereo unspecified)	2.24	0.2462	< 5.20
CCCCCCCCCOC(=O)C(CCCCN1C(=O)CCC1=O)N1CCCCCC1=O (stereo unspecified)	1.87	0.4095	< 5.20
CCCCCCCCCCCOC(=O)C(CCCCN1C(=O)CCC1=O)N1CCCCCC1=O (stereo unspecified)	1.81	0.7462	< 5.20
CCCCCCCC/C=C\CCCCCCCC(=O)O [OLEIC ACID]	1.13		

Other lines, results leading:

Ratio [1]	log K [2]	pIC50 (SK-N-MC)	SMILES
2.71	-0.0201	< 5.20	CCCCCCOC(=O)CCCCCN1C(=O)CCC1=O
3.51	0.8368	< 5.20	CCCCCCCCCCCOC(=O)CCCCCN1C(=O)CCC1=O
2.93	1.0091	< 5.20	CCCCCCCCCCCCOC(=O)CCCCCN1C(=O)CCC1=O
1.93	-0.0764	< 5.20	CCCCCCOC(=O)C(CCCCN1C(=O)CCC1=O)N1CCCCCC1=O (stereo unspecified)
	0.0658	< 5.20	CCCCCCCOC(=O)C(CCCCN1C(=O)CCC1=O)N1CCCCCC1=O (stereo unspecified)
	0.6158	< 5.20	CCCCCCCCCCOC(=O)C(CCCCN1C(=O)CCC1=O)N1CCCCCC1=O (stereo unspecified)
2.48	0.9081	< 5.20	CCCCCCCCCCCCOC(=O)C(CCCCN1C(=O)CCC1=O)N1CCCCCC1=O (stereo unspecified)
